# Laboratory results: ChEMBL document CHEMBL1153667, “6N-Cinnamoyl--naltrexamine and its p-nitro derivative. High efficacy -opioid agonists with weak antagonist actions” (Bioorg Med Chem Lett, 1996)
# Activity calls are given as the source filed them. No cut-off for these calls is given here.
# Key:
# [1] = target: T1, Kappa-type opioid receptor (Cavia porcellus, UniProt P41144); test: Compound was evaluated for binding affinity against [3H]- U-69593 labeled kappa1 opioid receptor in guinea-pig brain homogenate.; format: tissue-based
# T1 sequence (P41144 whole entry): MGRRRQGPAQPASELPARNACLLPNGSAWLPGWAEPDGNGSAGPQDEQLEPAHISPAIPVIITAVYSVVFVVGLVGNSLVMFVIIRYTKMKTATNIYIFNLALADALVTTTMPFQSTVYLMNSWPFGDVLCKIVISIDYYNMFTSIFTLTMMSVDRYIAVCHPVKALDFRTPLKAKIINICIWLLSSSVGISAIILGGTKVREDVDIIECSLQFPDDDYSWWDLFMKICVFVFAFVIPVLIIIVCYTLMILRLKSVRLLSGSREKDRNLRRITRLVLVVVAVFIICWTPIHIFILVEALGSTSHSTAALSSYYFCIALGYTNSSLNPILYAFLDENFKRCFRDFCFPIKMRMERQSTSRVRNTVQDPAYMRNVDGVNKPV
# Mu-type opioid receptor = Mu-type opioid receptor (Cavia porcellus, UniProt P97266); test: Compound was evaluated for binding affinity against [3H]- DAMGO labeled mu opioid receptor in guinea-pig brain homogenate.; format: tissue-based
# Sequence of Mu-type opioid receptor (P97266 whole entry): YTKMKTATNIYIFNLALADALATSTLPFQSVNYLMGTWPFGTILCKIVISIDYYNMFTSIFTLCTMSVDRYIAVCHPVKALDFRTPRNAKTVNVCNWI
# Cavia porcellus [2] = species: Cavia porcellus; test: Antagonism by the selective kappa-antagonist nor-binaltorphimine (nor-BNl) in electrically stimulated guinea-pig ileum; format: functional
# [3] = target: T1, Kappa-type opioid receptor; test: Compound was evaluated for binding affinity against [3H]- bremazocine labeled kappa2 opioid receptor in guinea-pig brain homogenate.; format: tissue-based
# [4] = target: T2, Kappa-type opioid receptor (Mus musculus, UniProt P33534); test: Compound was evaluated for kappa opioid receptor mediated agonistic effect in mouse vas deferens(MVD) preparations; Not an agonist; format: functional
# T2 sequence (P33534 whole entry): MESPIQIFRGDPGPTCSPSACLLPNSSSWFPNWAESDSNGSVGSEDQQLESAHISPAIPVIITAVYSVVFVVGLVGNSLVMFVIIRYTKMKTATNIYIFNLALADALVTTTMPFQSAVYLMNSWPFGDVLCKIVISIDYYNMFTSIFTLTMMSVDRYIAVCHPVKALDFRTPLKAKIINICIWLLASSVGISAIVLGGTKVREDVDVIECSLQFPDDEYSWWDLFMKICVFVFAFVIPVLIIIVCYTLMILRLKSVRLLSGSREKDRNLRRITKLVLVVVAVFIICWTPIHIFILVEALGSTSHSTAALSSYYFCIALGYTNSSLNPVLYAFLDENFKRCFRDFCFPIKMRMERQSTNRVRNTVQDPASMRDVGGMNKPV
# [5] = target: T1, Kappa-type opioid receptor; test: Compound was evaluated for kappa opioid receptor mediated agonistic effect in electrically stimulated guinea-pig ileum; format: functional, tissue-based
# [6] = target: T2, Kappa-type opioid receptor; test: Compound was evaluated for kappa opioid receptor mediated agonistic effect in mouse vas deferens(MVD) preparations; format: functional
# Mus musculus = species: Mus musculus; test: Antagonism by the selective kappa-antagonist nor-binaltorphimine (nor-BNl) in mouse vas deferens(MVD) preparations; format: functional
# Cavia porcellus [7] = species: Cavia porcellus; test: Antagonism by the selective kappa-antagonist nor-binaltorphimine (nor-BNl) in electrically stimulated guinea-pig ileum; No inhibition; format: functional
Compound,Ki [1] [nM],Ki (Mu-type opioid receptor) [nM],Ke (Cavia porcellus [2]) [nM],Ki [3] [nM],IC50 [4],IC50 [5] [nM],IC50 [6] [nM],Ke (Mus musculus) [nM],Ke (Cavia porcellus [7])
O=C(/C=C/c1ccc(Cl)cc1)N[C@@H]1CC[C@@]2(O)[C@H]3Cc4ccc(O)c5c4C2(CCN3CC2CC2)[C@H]1O5,0.2,0.1,0.3,48.3,Not Active,2.2,,,
Cc1ccc(/C=C/C(=O)N[C@@H]2CC[C@@]3(O)[C@H]4Cc5ccc(O)c6c5C3(CCN4CC3CC3)[C@H]2O6)cc1,0.6,0.23,0.2,171,,12.6,17100,,
O=C(/C=C/c1ccccc1)N[C@@H]1CC[C@@]2(O)[C@H]3Cc4ccc(O)c5c4[C@@]2(CCN3CC2CC2)[C@H]1O5,0.2,0.07,0.5,12.8,,0.4,5.6,5.1,
O=C(/C=C/c1ccc([N+](=O)[O-])cc1)N[C@@H]1CC[C@@]2(O)[C@H]3Cc4ccc(O)c5c4C2(CCN3CC2CC2)[C@H]1O5,0.8,0.2,,30.5,Not Active,13.4,,,inactive
